In US20230312587A1, “PTERIDINONE COMPOUNDS AND USES THEREOF” (Vertex Pharmaceutical Incorporated, priority 2018, published 2023):
Read-outs that look alike come from different tables or passages of the source.

How the values were obtained:
Assay type in all cases: cell-based
HepG2 XBP1(u)-Luc cells = experiment: HepG2 XBP1 reporter assay; conditions: 6 h
Procedure, shortened: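 Reporter cells are HepG2 stably carrying unspliced XBP1 fused to firefly luciferase, which becomes in-frame after IRE1alpha-mediated splicing. SteadyGlo luminescence was normalized to DMSO-treated cells for IC50 calculation.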

HepG2 parental = experiment: In vitro cell viability (CellTiter-Glo), HepG2 parental; conditions: 96 hours
Description: HEK293 cells containing empty pCLPCx vector (HEK293 empty), HEK293 cells stably over-expression WFS1 (HEK293 WFS1), HepG2, and HepG2 cells where WFS1 was depleted via CRISPR/Cas9 (HepG2 WFS1 KO) cells were plated into 96-well black plates (Corning, product #3904) in 100 microliters of complete DMEM cell culture media [DMEM (Life Technologies, product #11960-051) media supplemented with 10% FBS (Hyclone, catalog #SH30071.03), antimycotic/antibiotic (Life Technologies, product #15240-062), and Glutamax (Life Technologies, product #35050-061)] at 1,000 (HEK293) or 5,000 (HepG2) cells per well. Cells were allowed to attach and grow overnight, after which compounds are added at various concentrations. Cell viability was assessed 96 hrs after compound addition with CellTiter-Glo reagent (Promega, catalog #G7570) according to manufacturer's protocol and measurement on a Pherastar luminescence plate reader (BMG Labtech).
To determine the effect of WFS1 depletion on compound mediated inhibition of cell viability, parental HepG2 cells and HepG2 cells where WFS1 was deleted by CRISPR/Cas9 were exposed to increasing concentrations of either Compound 136 or Compound 253 for 96 hours after which time viability was determined using Cell Titer Glo reagent (Promega). […] The IC50s for the viability of both the HepG2 parental and WFS1 knockout cells are summarized in Table 47: A<0.5 μM; 0.5 μM≤<2.0 μM; 2.0 μM≤C<10.0 μM; D≥[…].

Hek293 empty vector = experiment: In vitro cell viability (CellTiter-Glo), Hek293 empty vector
Procedure, shortened: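 HEK293 cells stably transduced with empty pCLPCX retroviral vector (puromycin-selected), seeded 1,000 cells/well, treated next day with compounds at various concentrations. Viability read by CellTiter-Glo luminescence 96 hrs after compound addition; IC50 derived.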

[1] = Homo sapiens, read-out: HepG2 viability
[2] = Homo sapiens, HEK293, read-out: Hek293 empty vector viability
[3] = Hek293 empty vector, read-out: Hek293 empty vector viability

IC50 (HepG2 XBP1(u)-Luc cells; Homo sapiens) | Compound | IC50 (HepG2 parental; [1]) | IC50 (Hek293 empty vector; [2]) | also measured
600 to 2000 nM | CC[C@H]1C(=O)Nc2cnc(NCc3cnn(Cc4ccc(F)cc4)c3)nc2N1C [Compound 9, (7S)-7-ethyl-2-(((1-(4-fluorobenzyl)-1H-pyrazol-4-yl)methyl)amino)-8-methyl-7,8-dihydropteridin-6(5H)-one] | ≥ 10000 nM | ≥ 3000 nM | –
2000 to 10000 nM | Cc1nc(NCc2cnn(Cc3ccc(C(F)(F)F)nc3C(C)O)c2)nc2c1NC(=O)[C@H](C)N2C (stereo partly drawn) [Compound 419, (7S)-2-(((1-((2-((S)-1-hydroxyethyl)-6-(trifluoromethyl)pyridin-3-yl)methyl)-1H-pyrazol-4-yl)methyl)amino)-4,7,8-trimethyl-7,8-dihydropteridin-6(5H)-one] | 2000 to 10000 nM | ≥ 3000 nM | –
≥ 10000 nM | Cc1ncc(Cn2cc(CNc3nc(C)c4c(n3)N(C)[C@@H](C)C(=O)N4)cn2)cn1 [Compound 163, (7S)-4,7,8-trimethyl-2-(((1-((2-methylpyrimidin-5-yl)methyl)-1H-pyrazol-4-yl)methyl)amino)-7,8-dihydropteridin-6(5H)-one] | ≥ 10000 nM | ≥ 3000 nM | –
≥ 10000 nM | Cc1nc(N[C@H]2C[C@@H](Oc3cc(F)c(F)c(F)c3)C2)nc2c1NC(=O)[C@H](C)N2C [Compound 247, (7S)-4,7,8-trimethyl-2-((cis-3-(3,4,5-trifluorophenoxy)cyclobutyl)amino)-7,8-dihydropteridin-6(5H)-one] | 2000 to 10000 nM | ≥ 3000 nM | –
< 600 nM | Cc1nc(N[C@@H]2CC[C@@H](n3ccc(C(F)(F)F)n3)C2)nc2c1NC(=O)[C@H](C)N2C (single isomer, unassigned) [Compound 311] | ≥ 10000 nM | ≥ 3000 nM | –
2000 to 10000 nM | Cc1cnc(C(F)(F)F)nc1-n1cc(CNc2ncc3c(n2)N(C)[C@@H](C)C(=O)N3)cn1 [Compound 164, (7S)-7,8-dimethyl-2-(((1-(5-methyl-2-(trifluoromethyl)pyrimidin-4-yl)-1H-pyrazol-4-yl)methyl)amino)-7,8-dihydropteridin-6(5H)-one] | ≥ 10000 nM | ≥ 3000 nM | –
< 600 nM | Cc1nc(NCc2cnn(Cc3ccc(C(F)(F)F)nc3Cl)c2)nc2c1NC(=O)[C@H](C)N2C [Compound 418, (7S)-2-(((1-((2-chloro-6-(trifluoromethyl)pyridin-3-yl)methyl)-1H-pyrazol-4-yl)methyl)amino)-4,7,8-trimethyl-7,8-dihydropteridin-6(5H)-one] | < 500 nM | ≥ 3000 nM | –
≥ 10000 nM | CC(=O)N(Cc1cnn(Cc2ccc(C(F)(F)F)nc2)c1)c1nc(C)c2c(n1)N(C)[C@@H](C)C(=O)N2 [Compound 405, (7S)-N-((1-((6-(trifluoromethyl)pyridin-3-yl)methyl)-1H-pyrazol-4-yl)methyl)-N-(4,7,8-trimethyl-6-oxo-5,6,7,8-tetrahydropteridin-2-yl)acetamide] | ≥ 10000 nM | ≥ 3000 nM | –
– | (7S)-2-(((1-((6-fluoro-2-isopropylpyridin-3-yl)methyl)-1H-pyrazol-4-yl)methyl)(methyl)amino)-7-isopropyl-4,8-dimethyl-7,8-dihydropteridin-6(5H)-one [Compound 430] | – | – | IC50 (HepG2 XBP1(u)-Luc cells): < 600 nM; IC50 (HepG2 parental; read-out: HepG2 viability): < 500 nM; IC50 (Hek293 empty vector; [3]): ≥ 3000 nM
600 to 2000 nM | Cc1nc(NCc2cnn(Cc3ccc(C(F)(F)F)nc3)c2)nc2c1NC(=O)[C@H](C(C)C)N2C [Compound 383, (7S)-7-isopropyl-4,8-dimethyl-2-(((1-((6-(trifluoromethyl)pyridin-3-yl)methyl)-1H-pyrazol-4-yl)methyl)amino)-7,8-dihydropteridin-6(5H)-one] | < 500 nM | ≥ 3000 nM | –
≥ 10000 nM | Cc1nn(C)cc1Cn1cc(CNc2nc(C)c3c(n2)N(C)[C@@H](C)C(=O)N3)cn1 [Compound 139, (7S)-2-(((1-((1,3-dimethyl-1H-pyrazol-4-yl)methyl)-1H-pyrazol-4-yl)methyl)amino)-4,7,8-trimethyl-7,8-dihydropteridin-6(5H)-one] | ≥ 10000 nM | ≥ 3000 nM | –
600 to 2000 nM | Cc1ncc(Cn2cc(CNc3nc(C)c4c(n3)N(C)[C@@H](C(C)C)C(=O)N4)cn2)cc1F [Compound 425, (7S)-2-(((1-((5-fluoro-6-methylpyridin-3-yl)methyl)-1H-pyrazol-4-yl)methyl)amino)-7-isopropyl-4,8-dimethyl-7,8-dihydropteridin-6(5H)-one] | 500 to 2000 nM | ≥ 3000 nM | –
< 600 nM | Cc1nc(N[C@H]2C[C@@H](COc3ccc(C(F)(F)F)cn3)C2)nc2c1NC(=O)[C@H](C)N2C [Compound 356, (7S)-4,7,8-trimethyl-2-((cis-3-(((5-(trifluoromethyl)pyridin-2-yl)oxy)methyl)cyclobutyl)amino)-7,8-dihydropteridin-6(5H)-one] | ≥ 10000 nM | ≥ 3000 nM | –
– | Cc1nc(NCc2cnn(Cc3ccc(C(F)(F)F)nc3)c2)nc2c1NC(=O)[C@H](C)N2C [Compound 136, (7S)-4,7,8-trimethyl-2-(((1-((6-(trifluoromethyl)pyridin-3-yl)methyl)-111-pyrazol-4-yl)methyl)amino)-7,8-dihydropteridin-6(5H)-one] | – | – | IC50 (HepG2 XBP1(u)-Luc cells): 600 to 2000 nM; IC50 (HepG2 parental; read-out: HepG2 viability): 500 to 2000 nM; IC50 (HepG2 parental; cell viability, Cell Titer Glo, read-out: IC50): 330 nM; IC50 (HepG2 parental; cell viability, read-out: IC50 class): < 500 nM; IC50 (Hek293 empty vector; [3]): ≥ 3000 nM; IC50 (Hek293 empty vector; cell viability, Hek293 empty vector, read-out: IC50): > 27000 nM; IC50 (Hek293 empty vector; cell viability, Hek293 empty vector, read-out: IC50 class): ≥ 3000 nM
600 to 2000 nM | Cc1nc(NCc2cnn(Cc3cncc(F)c3)c2)nc2c1NC(=O)[C@H](C(C)C)N2C [Compound 415, (7S)-2-(((1-((5-fluoropyridin-3-yl)methyl)-1H-pyrazol-4-yl)methyl)amino)-7-isopropyl-4,8-dimethyl-7,8-dihydropteridin-6(5H)-one] | 500 to 2000 nM | ≥ 3000 nM | –
< 600 nM | Cc1nc(NCc2cnn(Cc3ccc(Cl)nc3)c2)nc2c1NC(=O)[C@H](C(C)C)N2C [Compound 409, (7S)-2-(((1-((6-chloropyridin-3-yl)methyl)-1H-pyrazol-4-yl)methyl)amino)-7-isopropyl-4,8-dimethyl-7,8-dihydropteridin-6(5H)-one] | < 500 nM | ≥ 3000 nM | –
